Laboratory results from ChEMBL document CHEMBL4831529, “Systematic Development of Peptide Inhibitors Targeting the CXCL12/HMGB1 Interaction” (J Med Chem, 2021).
pKd: −log10 of the molar value. Values belong to the molecule of their own block, whether it stands above or below them. Calls of active or inactive are those of the source. The rule behind the calls is not given here.

Columns and labels:
[1] = molecular target: T1, High mobility group protein B1 (Homo sapiens, UniProt P09429); test: Binding affinity to 6His-tagged HMGB1 (unknown origin) incubated for 15 mins by MST analysis
T1 sequence (P09429 whole entry): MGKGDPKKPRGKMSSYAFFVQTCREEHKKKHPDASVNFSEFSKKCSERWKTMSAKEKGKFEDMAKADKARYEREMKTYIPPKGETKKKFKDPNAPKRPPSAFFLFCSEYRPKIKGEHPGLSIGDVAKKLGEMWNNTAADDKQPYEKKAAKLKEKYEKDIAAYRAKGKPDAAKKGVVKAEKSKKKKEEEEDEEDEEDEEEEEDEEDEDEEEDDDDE

[2] = molecular target: C-X-C chemokine receptor type 4 (Homo sapiens) (UniProt P61073); test: Inhibition of human CXCR4-mediated chemotaxis expressed in mouse 300-19 Pre-B cells assessed as reduction in CXCL12/HMGB1-induced cell migration at 200 uM; type: functional, cell-based
Sequence of C-X-C chemokine receptor type 4 (Homo sapiens) (P61073 whole entry): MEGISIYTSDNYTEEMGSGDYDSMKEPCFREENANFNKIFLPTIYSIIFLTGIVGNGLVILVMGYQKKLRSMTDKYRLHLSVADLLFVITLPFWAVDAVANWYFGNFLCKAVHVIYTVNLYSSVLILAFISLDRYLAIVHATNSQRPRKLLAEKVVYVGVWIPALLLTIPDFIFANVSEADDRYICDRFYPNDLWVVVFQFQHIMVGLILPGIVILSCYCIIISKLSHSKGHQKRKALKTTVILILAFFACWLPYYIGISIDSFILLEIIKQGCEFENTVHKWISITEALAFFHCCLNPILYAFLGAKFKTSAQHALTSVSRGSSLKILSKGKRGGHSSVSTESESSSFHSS

[3] = molecular target: C-X-C chemokine receptor type 4 (Homo sapiens) (UniProt P61073); test: Inhibition of human CXCR4-mediated chemotaxis expressed in mouse 300-19 Pre-B cells assessed as reduction in CXCL12/HMGB1-induced cell migration at 100 uM; type: functional, cell-based
[4] = molecular target: C-X-C chemokine receptor type 4 (Homo sapiens) (UniProt P61073); test: Inhibition of human CXCR4-mediated chemotaxis expressed in mouse 300-19 Pre-B cells assessed as reduction in CXCL12-induced cell migration at 100 uM; type: functional, cell-based
[5] = molecular target: C-X-C chemokine receptor type 4 (Homo sapiens) (UniProt P61073); test: Inhibition of human CXCR4-mediated chemotaxis expressed in human monocytes assessed as reduction in CXCL12/HMGB1-induced cell migration at 100 uM; type: functional, cell-based; conditions: Monocyte
[6] = molecular target: C-X-C chemokine receptor type 4 (Homo sapiens) (UniProt P61073); test: Inhibition of human CXCR4-mediated chemotaxis expressed in human monocytes assessed as reduction in CXCL12-induced cell migration at 100 uM; type: functional, cell-based; conditions: Monocyte
[7] = molecular target: C-X-C chemokine receptor type 4 (Homo sapiens) (UniProt P61073); test: Inhibition of human CXCR4-mediated chemotaxis expressed in mouse 300-19 Pre-B cells assessed as reduction in CXCL12/HMGB1-induced cell migration at 50 uM; type: functional, cell-based
[8] = molecular target: Toll-like receptor 4 (Homo sapiens) (UniProt O00206); test: Inhibition of HMGB1 binding to TLR4 in human monocytes assessed as reduction in HMGB1-induced IL-6 production at 100 uM by cytometric bead array; type: cell-based; conditions: Monocyte
Sequence of Toll-like receptor 4 (Homo sapiens) (O00206 whole entry): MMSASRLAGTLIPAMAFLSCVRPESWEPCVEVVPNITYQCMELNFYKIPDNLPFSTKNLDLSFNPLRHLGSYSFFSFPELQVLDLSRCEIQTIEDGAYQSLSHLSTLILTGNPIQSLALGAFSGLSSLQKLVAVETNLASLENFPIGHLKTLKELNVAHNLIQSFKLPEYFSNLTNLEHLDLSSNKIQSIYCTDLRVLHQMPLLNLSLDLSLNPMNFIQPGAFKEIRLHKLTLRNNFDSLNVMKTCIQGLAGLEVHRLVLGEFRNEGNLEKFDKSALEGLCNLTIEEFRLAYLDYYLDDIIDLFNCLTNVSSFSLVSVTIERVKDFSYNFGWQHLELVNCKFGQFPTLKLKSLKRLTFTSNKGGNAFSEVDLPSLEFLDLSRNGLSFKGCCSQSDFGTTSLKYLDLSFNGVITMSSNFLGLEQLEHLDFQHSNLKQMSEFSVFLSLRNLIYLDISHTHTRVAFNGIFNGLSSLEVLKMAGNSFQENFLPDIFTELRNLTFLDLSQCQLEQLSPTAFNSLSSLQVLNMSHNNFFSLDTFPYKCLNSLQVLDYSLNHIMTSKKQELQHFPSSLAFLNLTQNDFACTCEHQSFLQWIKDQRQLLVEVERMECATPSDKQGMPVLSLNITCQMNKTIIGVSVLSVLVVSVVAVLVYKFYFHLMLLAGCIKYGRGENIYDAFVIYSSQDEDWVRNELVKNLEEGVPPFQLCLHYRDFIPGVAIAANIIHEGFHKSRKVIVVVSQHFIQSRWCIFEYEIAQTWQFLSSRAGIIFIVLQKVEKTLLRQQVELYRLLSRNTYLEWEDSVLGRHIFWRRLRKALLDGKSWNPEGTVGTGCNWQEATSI

[9] = molecular target: Toll-like receptor 4 (Homo sapiens) (UniProt O00206); test: Inhibition of HMGB1 binding to TLR4 in human monocytes assessed as reduction in HMGB1-induced TNF production at 100 uM by cytometric bead array; type: cell-based; conditions: Monocyte
[10] = molecular target: T1, High mobility group protein B1; test: Binding affinity to full-length N-terminal 6His-tagged HMGB1 (unknown origin) by NMR spectra

Molecule: H-GYHYERWIH-OH
inhibition [3]: Active
inhibition [4]: inactive
inhibition [5]: Active
inhibition [6]: inactive
inhibition [7]: 50%
inhibition [8]: inactive
inhibition [9]: inactive

Molecule: H-YHICWYGDY-OH
inhibition [3]: Active
inhibition [4]: Active

Molecule: H-HWTLANWCR-OH
inhibition [3]: Active
inhibition [4]: inactive

Molecule: H-ERWIH-OH
pKd ([1]; read-out: Kd): 3.80

Further lines, results first:

Kd [1]: Not Active
Molecule: H-GYHYE-OH

inhibition [2]: Active
Molecule: CC1(C)[C@@H](O[C@H]2O[C@H](C(=O)O)[C@@H](O)[C@H](O)[C@H]2O[C@@H]2O[C@H](C(=O)O)[C@@H](O)[C@H](O)[C@H]2O)CC[C@]2(C)[C@H]3C(=O)C=C4[C@@H]5C[C@@](C)(C(=O)O)CC[C@]5(C)CC[C@@]4(C)[C@]3(C)CC[C@@H]12

inhibition [3]: Active
inhibition [4]: Active
Molecule: H-WISNWILMW-OH

pKd [10]: 2.80
Molecule: O=C(O)c1cc(-c2ccc(F)cc2F)ccc1O [DIFLUNISAL]
